Data published in patent publication US20080132505A1 (Glaxo Group Limited, priority 2004, published 2008).

Key:
[1] = target: human cannabinoid CB2 receptor (Homo sapiens, UniProt P34972); test: Cannabinoid CB2 receptor agonist activity (yeast reporter assay, FDGlu fluorescence); format: cell-based; details: for EC50: EC50 value at the cloned human cannabinoid CB2 receptor; for Emax: read-out: efficacy value (Emax relative to HU210) at the cloned human cannabinoid CB2 receptor
Outline: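 S. cerevisiae MMY23 expressing human CB2 with a Gpa1/Gαi3 chimeric G-protein, grown 24 h at 30 °C with agonist (1% DMSO) in selective media containing 10 mM 3-aminotriazole and FDGlu, pH 7.0. Fluorescein fluorescence (485/535 nm) fitted by four-parameter curve; Emax and EMR relative to HU210.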

[2] = Particle size analysis (Lecotrac laser particle size analyser) pre and post nanomilling; format: physicochemical
Experimental: 2.5 g of compound of example 176 was weighed into a 10 ml centrifuge tube. 25 ml of 0.3 mm yttrium zirconium (YTZ) ceramic milling beads (Manufacturer: Tosob, Japan; Supplier: Glen Creston Ltd., batch no. 5280130030)”) was weighed into a 50 ml milling pot. 22.5 ml of aqueous 1.5% HPMC was measured with a measuring cylinder into a 100 ml beaker. This solution was homogenised for 3 seconds with an Ultra Turrax T25 homogeniser. Approximately 200 mg of the 2.5 g of the compound was added to the HPMC solution and homogenised at the lowest speed setting until the powder was wetted. This was repeated until all the compound had been added. The speed of the homogeniser was then increased to maximum and the suspension was homogenised for a further 3 minutes. This suspension was allowed to stand for 30 minutes in order to allow some of the foam to disperse. The suspension was then poured into the 50 ml pot containing the YTZ milling beads, stirring to release any trapped air. The lid to the pot was then fitted and the pot sealed with some Nesco film. This procedure was repeated for a second 50 ml nanomilling pot and both pots were placed on a Retsch mill and milled for a total of 8 hours.
The milling pots were removed from the Retsch mill and left to cool and for the foam to disperse overnight. In the morning the suspension and bead mixture was passed through a 200μ, 40 mm diameter screen. The contents from each 50 ml pot was washed with aqueous 1.5% HPMC: 10% of the original suspension volume (i.e. 2.5 ml). The suspension from the 2 pots was combined to make 1 batch. The suspension obtained from the method above was named the concentrate.
A particle size analysis was carried out on the Lecotrac laser particle size analyser. The results are shown in Table B along with the results from the starting material for comparison:
Compounds of Examples 19, 34, 194, 217, 228, 247 were nanomilled on a 1 g scale using the process described above and the particle size analysed pre and post nanomilling.

[3] = Table C, after nanomilling, 1 g scale
[4] = Table C, before nanomilling, 1 g scale
[5] = Table B, after 8 hours milling in aqueous 1.5% HPMC, 2.5 g per pot
[6] = Table B, starting material before nanomilling, Lecotrac laser particle size analyser

Chain of human cannabinoid CB2 receptor (P34972 whole entry): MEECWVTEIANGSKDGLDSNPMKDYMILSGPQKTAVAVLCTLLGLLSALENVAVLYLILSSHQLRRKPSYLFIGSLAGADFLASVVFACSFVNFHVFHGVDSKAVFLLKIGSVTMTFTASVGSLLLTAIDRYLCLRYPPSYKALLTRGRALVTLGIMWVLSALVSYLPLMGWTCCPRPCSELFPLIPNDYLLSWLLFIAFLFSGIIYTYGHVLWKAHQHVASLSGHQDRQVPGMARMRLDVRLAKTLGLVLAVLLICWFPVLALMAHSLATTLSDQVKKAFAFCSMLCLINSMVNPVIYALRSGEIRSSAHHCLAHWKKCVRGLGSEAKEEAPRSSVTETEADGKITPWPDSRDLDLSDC

Row | Structure (SMILES) | EC50 [1] [nM] | Emax [1] [%] | Post-nanomilling 50% percentile [2, 3] [μ] | Post-nanomilling 95% percentile [2, 3] [μ] | Pre-nanomilling 50% percentile [2, 4] [μ] | Pre-nanomilling 95% percentile [2, 4] [μ] | also measured
1 | O=C(NCC1CCCCC1)c1cnc(Nc2cccc(F)c2)nc1C(F)(F)F [Example 19, 2-(3-Fluorophenylamino)-4-trifluoromethylpyrimidine-5-carboxylic acid cyclohexylmethyl-amide] | 20 to 300 | > 50 | 0.40 | 1.40 | 5.22 | 25.5 | 
2 | O=C(NCC1CCOCC1)c1cnc(Nc2ccc(Cl)cc2Cl)nc1C(F)(F)F [Example 34, 2-(2,4-Dichlorophenylamino)-4-trifluoromethylpyrimidine-5-carboxylic acid (tetrahydropyran-4-ylmethyl)-amide] | 20 to 300 | > 50 | 0.18 | 0.56 | 10.46 | 32.7 | 
3 | N#Cc1ccc(Nc2ncc(C(=O)NCC3CCCC3)c(C(F)(F)F)n2)cc1 [Example 176, 2-(4-Cyanophenylamino)-4-trifluoromethyl-pyrimidine-5-carboxylic acid cyclopentylmethyl-amide] | 20 to 300 | > 50 |  |  |  |  | Post-nanomilling 50% percentile [2, 5]: 0.33 μ; Post-nanomilling 95% percentile [2, 5]: 1.78 μ; Pre-nanomilling 50% percentile [2, 6]: 13.15 μ; Pre-nanomilling 95% percentile [2, 6]: 68.7 μ
4 | O=C(NCC1CCC1)c1cnc(Nc2ccc(F)c(Cl)c2)nc1C(F)(F)F [Example 194, 2-(3-Chloro-4-fluorophenylamino)-4-trifluoromethyl-pyrimidine-5-carboxylic acid cyclobutylmethyl-amide] | 20 to 300 | > 50 | 0.56 | 1.97 | 6.78 | 33.7 | 
5 | N#Cc1ccc(Nc2ncc(C(=O)NCC3CCOCC3)c(C(F)(F)F)n2)cc1Cl [Example 217, 2-(4-Cyano-3-chloro-phenylamino)-4-trifluoromethyl-pyrimidine-5-carboxylic acid (tetrahydro-pyran-4-ylmethyl)-amide] | 20 to 300 | > 50 | 0.34 | 1.30 | 5.70 | 34.9 | 
6 | O=C(NCC1CCC1)c1cnc(Nc2ccc(Cl)cc2F)nc1C(F)(F)F [Example 228, 2-(2-Fluoro-4-chloro-phenylamino)-4-trifluoromethyl-pyrimidine-5-carboxylic acid cyclobutylmethyl-amide] | 20 to 300 | > 50 | 0.44 | 1.69 | 4.65 | 47.1 | 
7 | O=C(NCC1CCCC1)c1cnc(Nc2ccc(F)c(Cl)c2)nc1C(F)(F)F [Example 247, 2-(3-Chloro-4-fluoro-phenylamino)-4-trifluoromethyl-pyrimidine-5-carboxylic acid cyclopentylmethyl-amide] | 20 to 300 | > 50 | 0.64 | 2.53 | 13.2 | 68.7 | 
8 | CC(C)c1cc(Nc2cccc(C(F)(F)F)c2)ncc1C(=O)NCc1ccc(F)cc1 [Example 393, N-(4-Fluoro-benzyl)-4-isopropyl-6-(3-trifluoromethyl-phenylamino)-nicotinamide] |  | > 50 |  |  |  |  | 
9 | Cc1cccc(Nc2cc(C(C)C)c(C(=O)NCc3ccc(F)cc3)cn2)c1C#N [Example 395, 6-(2-Cyano-3-methyl-phenylamino)-N-(4-fluoro-benzyl)-4-isopropyl-nicotinamide] |  | > 50 |  |  |  |  | 
10 | O=C(NCc1ccncc1)c1ccc(Nc2cccc(Cl)c2)nc1C(F)(F)F [Example 457, 6-(3-Chloro-phenylamino)-N-(pyridin-4-ylmethyl)-2-trifluoromethyl-nicotinamide] |  | > 50 |  |  |  |  | 
11 | O=C(NCC1CCOCC1)c1ccc(Nc2cccc(Cl)c2)nc1C(F)(F)F [Example 662, 6-(3-Chloro-phenylamino)-N-(tetrahydro-pyran-4-ylmethyl)-2-trifluoromethyl-nicotinamide] |  | > 50 |  |  |  |  | 
12 | CC(C)c1cc(Nc2cc(Cl)ccc2C#N)ncc1C(=O)NCC1CCOCC1 [Example 679, 6-(5-Chloro-2-cyano-phenylamino)-4-isopropyl-N-(tetrahydro-pyran-4-ylmethyl)-nicotinamide] |  | < 30 |  |  |  |  | 
13 | CC(C)c1cc(Nc2cccc(Cl)c2)ncc1C(=O)NCC1CCS(=O)(=O)C1 (stereo not shown) [Example 681, 6-(3-Chloro-phenylamino)-N-(1,1-dioxo-tetrahydro-1l^6-thiophen-3-ylmethyl)-4-isopropyl-nicotinamide] |  | > 50 |  |  |  |  | 
14 | CC(C)c1cc(Nc2cccc(OC(F)(F)F)c2)ncc1C(=O)NCC1CCC1 [Example 682, N-Cyclobutylmethyl-4 isopropyl-6-(3-trifluoromethoxy-phenylamino)-nicotinamide] |  | > 50 |  |  |  |  | 
15 | CC(C)c1cc(Nc2ccc(C#N)cc2F)ncc1C(=O)NCC1CCCC1 [Example 751, 6-(4-Cyano-2-fluoro-phenylamino)-N-cyclopentylmethyl-4-isopropyl-nicotinamide] |  | > 50 |  |  |  |  | 
16 | CC(C)c1cc(Nc2ccc(Br)c(C(F)(F)F)c2)ncc1C(=O)NCC1CCOCC1 [Example 752, 6-(4-Bromo-3-trifluoromethyl-phenylamino)-4-isopropyl-N-(tetrahydropyran-4-ylmethyl)-nicotinamide] | 300 to 1000 | > 50 |  |  |  |  | 
